From patent US20220249599A1, “TREATMENT OF IMPLANTS WITH ENGINEERED ANTIMICROBIAL AMPHIPHILIC PEPTIDES” (priority 2018, published 2022)
Read-outs that look alike come from different tables or passages of the source. Ends that are not written are not given here.

What was measured:
[1] = test system: Klebsiella pneumoniae (n = 101); type: cell-based
Method: (§1) The clinical isolates were obtained from USA hospitals. […] Plates were incubated at 35° C. overnight.

[2] = test system: Acinetobacter spp. (n = 104); type: cell-based
Method: as §1

[3] = test system: Pseudomonas aeruginosa (n = 109); type: cell-based; conditions: P. aeruginosa colistin-resistant (COL^R) isolates, n 8
Method: as §1

[4] = test system: Escherichia coli (n = 101); type: cell-based; conditions: n = 101
Method: as §1

[5] = test system: Staphylococcus aureus (n = 104); assay: microbe, parasite or virus in culture; type: cell-based
Method: as §1

[6] = test system: Enterococcus faecium (n = 104); assay: microbe, parasite or virus in culture; conditions: n = 104
Method: Comparator antibiotics were supplied by Micromyx, and stock solutions were prepared on the first day of testing using solvents recommended by CLSI (1). Stock solutions of all compounds were made at 40× the final testing concentration and stored at −80° C. prior to testing. Information regarding compound source, catalog and lot number, testing concentrations and drug diluent for the comparators and test agent are detailed below in Table 3.
The test organisms evaluated in this study consisted of clinical isolates from the Micromyx Repository and reference isolates from the American Type Culture Collection (ATCC; Manassas, Va.). The clinical isolates were obtained from USA hospitals. Upon initial receipt at Micromyx, the organisms were sub-cultured onto an appropriate agar medium. Following incubation, colonies were harvested from these plates and cell suspensions prepared and frozen at −80° C. with a cryoprotectant. Prior to testing, the isolates were streaked from frozen vials onto Trypticase Soy Agar with 5% sheep blood (Becton Dickenson [BD]; Sparks, MD; Lot Nos. 7173618, 7166759, 7208688, 72144895, 7228505 and Remel Lenexa, Kans. Lot No. 212574). Plates were incubated at 35° C. overnight.
Mueller Hinton II broth (MHB II; BD; Lot Nos. 6258541 and 7143896) was used for MIC testing of aerobic organisms.
(§2) MIC values were determined using a broth microdilution procedure described by CLSI (1, 3). Automated liquid handlers (Multidrop 384, Labsystems, Helsinki, Finland; Biomek 2000 and Biomek FX, Beckman Coulter, Fullerton Calif.) were used to conduct serial dilutions and liquid transfers.
To prepare the drug mother plates, which would provide the serial drug dilutions for the replicate daughter plates, the wells of columns 2-12 of standard 96-well microdilution plates (Costar 3795) were filled with 150 µl of the designated diluent for each row of drug. The test articles and comparator compounds ([…] at 40× the highest concentration to be tested) were dispensed into the appropriate wells in column 1. The Biomek 2000 was then used to make 2-fold serial dilutions in the mother plates from column 1 through column 11. The wells of Column 12 contained no drug and served as the organism growth control wells for the assay.
(§3) The daughter plates were loaded with 185 g L per well of MHB II using the Multidrop 384. The daughter plates were completed on the Biomek FX instrument which transferred 5 µL of drug solution from each well of a mother plate to the corresponding well of each daughter plate in a single step. A standardized inoculum of each test organism was prepared per CLSI methods (1). The inoculum for each organism was dispensed into sterile reservoirs divided by length (Beckman Coulter), and the Biomek 2000 was used to inoculate the plates. Daughter plates were placed on the Biomek 2000 work surface in reverse orientation so that inoculation took place from low to high drug concentration.
(§4) Plates were stacked 3-4 high, covered with a lid on the top plate, placed in plastic bags, and incubated at 35° C. for 16 to 20 hrs. Following incubation, the microplates were removed from the incubator and viewed from the bottom using a plate viewer. […] The MIC was read and recorded as the lowest concentration of drug that inhibited visible growth of the organism.
Clinical breakpoints to determine percent resistance within a given organism group were obtained from CLSI (3), with the exception of colistin for K. pneumoniae, Enterobacter spp., and E. coli, which are only available from EUCAST.

[7] = test system: Acinetobacter baumannii ATCC BAA-1797 (MDR); assay: microbe, parasite or virus in culture; type: cell-based; conditions: ATCC BAA-1797
Method: Each peptide was formulated in PBS buffer prior to testing. Peptides of SEQ ID NO:5 and SEQ ID NO:8 were brought up in 100% DMSO with 0.002% polysorbate-80 at 1.28 mg/mL (40× the highest final test concentration of 32 mcg/mL). Final test concentration of DMSO was 2.5% in the assay at the first dilution for those two compounds.
Mueller Hinton II broth (MHB II; BD; Lot Nos. 6258541 and 7143896) was used for MIC testing of aerobic organisms. 0.002% polysorbate 80 (P80) was added to the test medium.
as §2
To prepare the drug mother plates, which would provide the serial peptide dilutions for the replicate daughter plates, the wells of columns 2-12 of standard 96-well microdilution plates (Costar 3795) were filled with 150 µl of the designated diluent for each row of peptide.
The test articles and comparator compounds ([…] at 40× the highest concentration to be tested) were dispensed into the appropriate wells in column 1. The Biomek 2000 was then used to make 2-fold serial dilutions in the mother plates from column 1 through column 11. The wells of Column 12 contained no drug and served as the organism growth control wells for the assay.
as §3, with “185 μL” for “185 g L”, “5 uL” for “5 µL”, “of peptide” for “of drug”, “CLSI methods.” for “CLSI methods (1).”
as §4, with “peptide” for “drug”

RRWVRRVRRVWRRVVRVVRRWVRR-NH2 (C-terminus assumed) [SEQ ID NO: 1]
MIC90 ([1]; K. pneumoniae colistin-resistant (COL^R) isolates, n 28): 16 µg/mL | Mode (MIC) ([1]; n = 101): 8 µg/mL | MIC90 [2]: 4 µg/mL | Mode (MIC) [2]: 4 µg/mL | MIC90 ([2]; Acinetobacter colistin-resistant (COL^R) isolates, n 21): 16 µg/mL | MIC90 [3]: 16 µg/mL | MIC90 [4]: 4 µg/mL | Mode (MIC) [4]: 2 µg/mL | MIC range ([5]; S. aureus MRSA isolates, n 104): 1 to 16 µg/mL | MIC range ([5]; Staphylococcus aureus (n = 104), all methicillin-resistant): 1 to 16 µg/mL | MIC50 ([5]; n = 104): 4 µg/mL | Mode (MIC) ([5]; n = 104): 4 µg/mL | MIC50 [6]: 0.5 µg/mL | MIC90 [6]: 1 µg/mL | MIC range [6]: 0.25 to 2 µg/mL | Mode (MIC) [6]: 1 µg/mL | MIC [7]: 4 µg/mL
